The target in this assay is T1, Human TREM2 (Homo sapiens, UniProt Q9NZC2).
T1 construct: expressed in transfected cells
Nature of the assay: Human TREM2 activity: cellular phosphorylation of Syk (AlphaLISA SureFire Ultra p-SYK) in HEK293/DAP12+TREM2 stable cell line. Type of assay: cell-based. As to conditions: for Emax: HEK293, maximal response relative to reference agonist example 1B (remaining examples), read-out: Emax; for EC50: phospho-Syk AlphaLISA signal, HEK293/DAP12+TREM2 cells, concentration giving 50% of maximal response, read-out: EC50. The source says: Human TREM2, in vitro Measurement of Triggering Receptor Expressed on Myeloid Cells 2 activity using cellular phosphorylation of Spleen Tyrosine Kinase (“Syk”) Assay
HEK-293 cells were co-transfected with separate plasmids encoding TREM2 and DAP12 to generate a stable cell line. After antibiotic selection, functional clone pool analysis and two successive limiting dilutions, the final clone “HEK293/DAP12+TREM2” underwent a qPCR analysis and a pharmacological validation.
TREM2 signaling through DAP12 was monitored in the HEK293/DAP12+TREM2 stable cell line by measuring the phosphorylation levels of the Syk kinase using the commercially available AlphaLISA SureFire Ultra p-SYK (Tyr525/526) Assay Kit (PerkinElmer #ALSU-PSYK), based on the Perkin Elmer AlphaScreen/AlphaLISA technology.
Compounds are transferred to the test plate and tested in full dose response, 8 concentrations in quadruplicate data points. Compound serial dilutions were performed at Cybi-Felix instrument in 100% DMSO and the dose response curves were assembled in automated fashion in 384MPT at Hamilton STARlet instrument. All the stock solutions were prepared at 20 mM in 100% DMSO. For compounds testing, the starting concentration was 100 μM, dilution steps 1:6. […] Finally, a 384MPT reformatted for all compounds at 8 concentrations, quadruplicates, was used as “mother to child” process with a CyBi®-Well dispenser in which 1 μL of each compound was moved into a destination plate pre-filled with 65.6 μL of EMEM cell culture medium (BIOWHITTAKER_cat.BE12-125F), thus obtaining 3× concentrated compounds working solution. In columns 1-2 and 23-24 the control wells were added. In particular, dose response curves of a reference control agonist were included in column 1 and 24 as reference control agonist (Reference control agonists used include Human TREM2 polyclonal Antibody AF1828: R&D Systems; Human TREM2 monoclonal Antibody MAB1828: R&D Systems). The dose response curves were tested starting at 30 μM, dilution step 1:6. Both “source” compound plate and “destination” compound plate were barcoded and a relationship between the two plates was thus generated.
HEK293/DAP12+TREM2 cells were cultured in EMEM medium supplemented with IX Penicillin/Streptomycin (BIOWHITTAKER_cat.DE17-602E), ULTRAGLUTAMINE I 200 mM, 10% Fetal Bovine Serum plus antibiotics referred to as “HEK293 Culture Medium”. The day before the experiment, cells were detached by gentle wash with DPBS, followed by 5 min incubation at 37° C. with Trypsin solution. Cells were then diluted in HEK293 Culture Medium without antibiotics, counted and seeded into 384-well poly-D-Lysine coated microplates black/clear bottom (GREINER 781946) at a density of 10,000 cells/well in 25 μL/well by the use of a MATRIX WellMate dispenser. Plates were placed into a humidified cell culture incubator at 37° C. with 5% CO2 until the experimental day. 20-24 hours after seeding mature medium was removed and replaced with 10 μL/well of EMEM cell medium supplemented with 0.1% Pluronic F-68 non-ionic surfactant (Thermofisher, 24040032), referred to as “Assay Buffer”, using the CyBi®-Well instrument. Then 5 μL/well of Assay Buffer containing 3× concentrated test compounds or the reference control agonist (in 0.5% final DMSO concentration) were added to the cells with the CyBi®-Well instrument. Cell plates were incubated for 30 min into a humidified cell culture incubator at 37° C. with 5% CO2·, then the medium was removed by manually discard. 20 μL/well of lysis buffer were dispensed using the CyBi®-Well instrument and plates were incubated for 10 min at room temperature on a plate shaker (350 rpm). Then, 10 μL/well of lysate were transferred to the Alpha plates. The CyBi®-Well instrument was used to dispense 5 μL/well of AlphaLISA Acceptor Bead Solution in IX Immunoassay buffer (Perkin Elmer AL000F). Then the plates were sealed with Heat sealing foil, shaked for 2 minutes (350 rpm) and incubated for 1 hour at room temperature.

The structures appear in SMILES notation.

T1 sequence (Q9NZC2 19-230): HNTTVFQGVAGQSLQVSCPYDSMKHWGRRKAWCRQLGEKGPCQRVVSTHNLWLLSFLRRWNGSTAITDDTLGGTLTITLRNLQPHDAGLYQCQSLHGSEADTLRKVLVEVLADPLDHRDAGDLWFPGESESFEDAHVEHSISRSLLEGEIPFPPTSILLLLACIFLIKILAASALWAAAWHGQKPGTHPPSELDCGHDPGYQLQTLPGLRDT
T1 sequence (O43914 22-113 partner): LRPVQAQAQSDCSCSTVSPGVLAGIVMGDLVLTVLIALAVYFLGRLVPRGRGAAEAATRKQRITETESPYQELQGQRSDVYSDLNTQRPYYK

With `Cc1nc2c(-c3ccc(Cl)cc3F)nc(N3CCO[C@H](c4cnn(C(F)(F)F)c4)C3)nc2c(=O)n1C` (single isomer, unassigned) [Example 107A], the Emax lay within 75 to 110% and the EC50 lay in the range of 10 to 100 nM.

Take `Cc1nc2c(-c3ccc(C(F)(F)F)nc3)nc(N3CCC(F)(F)[C@H](c4cnn(C)c4)C3)nc2c(=O)n1C` (single isomer, unassigned) [Example 92]: the Emax was under 75% and the EC50 is 10 to 100 nM.

Take `Cc1nc2c(nc(N3CCOC(c4cnn(C)c4)C3)nc2[C@H]2CC[C@@H](C)CC2)c(=O)n1C` (stereo partly shown) [Example 12a, 2,3-dimethyl-6-(2-(1-methyl-1H-pyrazol-4-yl)morpholino)-8-((1s,4s)-4-methylcyclohexyl)pyrimido[5,4-d]pyrimidin-4 (3H)-one]: the Emax was 75 to 110% and the EC50 is over 1000 nM.

`Cc1nc2c(-c3cc(F)c(F)cc3F)nc([C@@H]3CCO[C@H](c4cnn(C5CC5)c4)C3)nc2c(=O)n1C` (single isomer, unassigned) [Example 97A]: the Emax fell in the range of 75 to 110% and the EC50 lay in the range of 10 to 100 nM.

On to `Cc1nc2c(-c3ccc(C(F)F)nc3)nc(N3C[C@@H](C)O[C@@H](c4cnn(C5CC5)c4)C3)cc2c(=O)n1C` (single isomer, unassigned) [Example 194B], for which the Emax was under 75% and the EC50 was 100 to 1000 nM.

`Cc1nc2c(-c3ccc(Cl)cc3F)nc(N3CCOC(C(=O)N(C)C)C3)nc2c(=O)n1C` (stereo not shown) [Example 51, 4-(4-(4-chloro-2-fluorophenyl)-6,7-dimethyl-8-oxo-7,8-dihydropyrimido[5,4-d]pyrimidin-2-yl)-N,N-dimethylmorpholine-2-carboxamide]: the Emax fell in the range of 75 to 110% and the EC50 was over 1000 nM.

Turning to `Cc1ncc([C@H]2C[C@@H](c3nc(-c4ccc(Cl)cc4F)c4nc(C)n(C)c(=O)c4n3)CCO2)cn1` (racemic) [Example 37, 8-(4-chloro-2-fluorophenyl)-2,3-dimethyl-6-((2R,4S)-2-(2-methylpyrimidin-5-yl)tetrahydro-2H-pyran-4-yl)pyrimido[5,4-d]pyrimidin-4 (3H)-one], the maximum response (Emax) is 75 to 110% and the EC50 fell in the range of 100 to 1000 nM.

In the case of `Cc1nc2c(-c3cc(F)c(F)cc3F)nc(N3CCO[C@H](c4cnn(C)c4)C3)cc2c(=O)n1C` (single isomer, unassigned) [Example 130B], the Emax was under 75% and the EC50 was 100 to 1000 nM.

On to `COC1CN(C2CCCN(c3nc(-c4ccc(Cl)cc4F)c4nc(C)n(C)c(=O)c4n3)C2)C1` (stereo not shown) [Example 79, 8-(4-chloro-2-fluorophenyl)-6-(3-(3-methoxyazetidin-1-yl)piperidin-1-yl)-2,3-dimethylpyrimido[5,4-d]pyrimidin-4 (3H)-one], for which the Emax is under 75% and the EC50 is over 1000 nM.

In the case of `Cc1cc([C@H]2CN(c3nc(-c4cc(F)c(F)cc4F)c4nc(C(F)(F)F)n(C)c(=O)c4n3)CCO2)ccn1` (single isomer, unassigned) [Example 155B], the maximum response (Emax) lay within 75 to 110% and the EC50 is 10 to 100 nM.

In the case of `Cc1nc2c(-c3ccc(F)cc3F)nc(N3C[C@@H](c4cnn(C)c4)OC(F)(F)C3)cc2c(=O)n1C` (single isomer, unassigned) [Example 166A], the Emax is 75 to 110% and the EC50 fell in the range of 1 to 10 nM.

As to `Cc1nc2c(-c3ccc(C(F)(F)F)cc3F)nc(N3C[C@@H](c4cnn(C)c4)OC(C)(C)C3)cc2c(=O)n1C` (single isomer, unassigned) [Example 134A], the Emax lay in the range of 75 to 110% and the EC50 lay in the range of 10 to 100 nM.

For the molecule `Cc1nc2c(-c3ccc(C(F)(F)F)cc3F)nc(N3CCO[C@H](c4cnn(C)c4)C3)cc2c(=O)n1C` (single isomer, unassigned) [Example 126B], the Emax was under 75% and the EC50 fell in the range of 100 to 1000 nM.

`Cc1nc2c(-c3ccc(F)cc3F)nc(N3CCO[C@@H](c4cnn(C)c4)C3)cc2c(=O)n1C` (single isomer, unassigned) [Example 129A]: the Emax lay in the range of 75 to 110% and the EC50 fell in the range of 10 to 100 nM.

For `Cc1nc2c(-c3ccc(Cl)cc3F)cc([C@H]3CCO[C@@H](c4cnn(C5CC5)c4)C3)cc2c(=O)n1C` (single isomer, unassigned) [Example 119B], the Emax lay in the range of 75 to 110% and the EC50 was in the range of 1 to 10 nM.

Take `Cc1cc([C@@H]2CN(c3nc(-c4ccc(C(F)(F)F)cc4F)c4nc(C)n(C)c(=O)c4n3)C[C@H](C)O2)ccn1` (single isomer, unassigned) [Example 179A]: the Emax was 75 to 110% and the EC50 fell in the range of 1 to 10 nM.

As to `Cn1cc([C@@H]2CN(c3nc(-c4ccc(F)cc4F)c4nc(C(F)(F)F)n(C)c(=O)c4n3)CC3(CC3)O2)cn1` (single isomer, unassigned) [Example 165A], the Emax was 75 to 110% and the EC50 lay within 1 to 10 nM.

`Cc1nc2c(-c3ccc(Cl)cc3F)nc(N3CCOC(c4cnn(C)n4)C3)nc2c(=O)n1C` (stereo not shown) [Example 91, 8-(4-chloro-2-fluorophenyl)-2,3-dimethyl-6-(2-(2-methyl-2H-1,2,3-triazol-4-yl)morpholino)pyrimido[5,4-d]pyrimidin-4 (3H)-one]: the Emax fell in the range of 75 to 110% and the EC50 lay within 1 to 10 nM.

For `Cc1nc2c(C3CCC(F)(F)CC3)nc(N3CCOC(c4cnn(C)c4)C3)nc2c(=O)n1C` (stereo not shown) [Example 11, 8-(4,4-difluorocyclohexyl)-2,3-dimethyl-6-(2-(1-methyl-1H-pyrazol-4-yl)morpholino)pyrimido[5,4-d]pyrimidin-4 (3H)-one], the Emax was 75 to 110% and the EC50 was 100 to 1000 nM.

`Cc1nc2c(-c3ccc(C(F)(F)F)cc3F)nc(N3CCO[C@H](c4cnn(C5CC5)c4)C3)nc2c(=O)n1C` (single isomer, unassigned) [Example 20A]: the Emax lay within 75 to 110% and the EC50 fell in the range of 10 to 100 nM.

With `Cn1c(C(F)(F)F)nc2c(-c3ccc(F)cc3F)nc([C@@H]3CCO[C@H](c4cnn(C5CC5)c4)C3)cc2c1=O` (single isomer, unassigned) [Example 197A], the Emax was under 75% and the EC50 lay within 10 to 100 nM.

As to `Cc1nc2c(-c3ccc(F)cc3C#N)nc(N3C[C@@H](C)O[C@@H](c4cnn(C5CC5)c4)C3)cc2c(=O)n1C` (single isomer, unassigned) [Example 201B], the Emax was under 75% and the concentration giving a half-maximal response (EC50) is over 1000 nM.

Turning to `Cc1nc2c(-c3ccc(Cl)cc3F)nc(N3CCC[C@@H](Oc4cnn(C)c4)C3)nc2c(=O)n1C` [Example 76, (R)-8-(4-chloro-2-fluorophenyl)-2,3-dimethyl-6-(3-((1-methyl-1H-pyrazol-4-yl)oxy)piperidin-1-yl)pyrimido[5,4-d]pyrimidin-4 (3H)-one], the Emax is 75 to 110% and the EC50 was 100 to 1000 nM.

In the case of `Cc1nc2c(-c3ccc(Cl)cc3F)nc(N3CCO[C@@H](c4cnn(C(F)(F)F)c4)C3)nc2c(=O)n1C` (single isomer, unassigned) [Example 107B], the Emax lay within 75 to 110% and the EC50 lay within 100 to 1000 nM.

In the case of `Cc1nc2c(-c3ccc(C(F)(F)F)cc3F)nc(N3C[C@H](c4cnn(C)c4)OC4(CCC4)C3)cc2c(=O)n1C` (single isomer, unassigned) [Example 143B], the Emax was under 75% and the EC50 lay within 100 to 1000 nM.

With `Cc1cc([C@H]2CN(c3cc4c(=O)n(C)c(C)nc4c(-c4ccc(C(F)F)nc4)n3)CC(C)(C)O2)ccn1` (single isomer, unassigned) [Example 180B], the Emax was under 75% and the EC50 fell in the range of 10 to 100 nM.

What is called Emax is the greatest response seen or fitted, relative to the assay's reference. As usually defined, the EC50 is the concentration needed to bring the measured effect to its halfway point.

These data come from patent US20260200926A1, “TREM2 MODULATORS” (Muna Therapeutics ApS, priority 2022, published 2026).
